Our source for the GI50 and TGI values is PubChem BioAssay (NCI).

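Following 48 hours of exposure in 96-well plates, responses at five concentrations were used to interpolate endpoints linearly. Abbreviation: GI50, concentration required for 50% inhibition of growth. TGI marks complete inhibition of growth.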

In one test the test system is 786-0 renal. Kind of test: NCI tumour cell line growth inhibition, 48 h.
With `CCC[CH2][Sn]([CH2]CCC)([O]C(C)=O)[O]C(C)=O`, the GI50 was 1.48 µM and the TGI turned out to be 2.83 µM.
Molecule `O=C(O)[C@@H]1C2CC([C@@H]1C(=O)O)[C@H](N1C(=O)CCC1=O)[C@@H]2Br` (stereo not given in full) registered a TGI greater than 100 µM.
The same measure, in the same setting: the same measure for `COC(=O)CCC(=O)N1Cc2cc(C)ccc2N(C(=O)CCC(=O)OC)Cc2cc(C)ccc21`: greater than 100 µM; for `C=C1C(=O)O[C@H]2C[C@@H](C)[C@@H]3CC(=O)OC[C@@]3(C)CC12` (stereo not given in full): greater than 100 µM.
In the case of `CCOC(=O)c1c2c(n(CC(C)C)c1C)-c1nc[nH]c1C(=O)C2=O`, the GI50 is 19.2 µM and the TGI is 33.3 µM.
The molecule `CS(=O)(=O)CC1=Nc2nnc(CCCCCCCc3nnc4n3C(=O)C(CS(C)(=O)=O)=N4)n2C1=O` had a TGI greater than 100 µM.
On to `COc1ccccc1[N-]C(C1=C([O-])c2ccccc2C1=O)c1ccccc1.COc1ccccc1[N-]C(C1=C([O-])c2ccccc2C1=O)c1ccccc1.[Cu+2]` (stereo not given), for which the GI50 is 7.76 µM and the TGI was greater than 100 µM.
On the same counts, the results for `COc1cc2c(cc1OC)-c1ccc3cc4c(cc3c1N(CCN1CCCC1)C2)OCO4` are 0.477 µM and 1.92 µM.
Molecule `O=C(NCCCCCCNC(=O)c1cccc2ccccc12)c1cccc2ccccc12` registered a TGI of 80.7 µM.
The same measure, in the same setting: the same measure for `COC12C=CC(CC1)c1c(O)ccc(O)c12` (stereo not given): greater than 100 µM.
On to `CC1=C2CCCC2C/C(=N/Nc2ccc([N+](=O)[O-])cc2[N+](=O)[O-])CC1` (stereo not given), for which the TGI is greater than 100 µM.
For `COc1cc2cc(Oc3ccc(NC(=O)Nc4ccc(Cl)c(C(F)(F)F)c4)cc3)c(C)nc2cc1OCCN1CCCCC1`, the GI50 is 1.64 µM and the TGI was determined as 3.17 µM.
For `C=CCC(N[C@H](CO)C(C)C)c1cn(C(=O)OCC)c2ccccc12` (stereo not given in full) the same measures were 28.4 µM and 72.7 µM.
`CC1CC2C(=O)NC(=O)C2c2[nH]c3ccccc3c21` (stereo not given): the TGI was greater than 100 µM.
Regarding `CC12CCC(=O)C(O1)C1C(=O)c3cc4ccccc4cc3C(=O)C12` (stereo not given), the GI50 was 16.3 µM and the TGI came out at 30 µM.
On the same counts, the results for `CC1(C)CCC2(C(=O)OC3OC(CO)C(O)C(O)C3O)CC[C@]3(C)C(=CCC4C5(C)CC[C@H](OC6OC(C(=O)O)C(O)C(O)C6O)C(C)(C)C5CCC43C)C2C1` (stereo not given in full) are 1.56 µM and 6.19 µM.
Turning to `Cc1ccc2c(c1)C1(C)OC(CC(N)C1O)O2` (stereo not given), the TGI was greater than 100 µM.
On the same count and under the same terms, the same measure for `COC(=O)[C@@H]1CSC(=S)N1C(=O)C[C@H]1CC=CC[C@H]1CC(=O)Sc1ccccc1`: 32.3 µM; for `CC1(Sc2ccccc2)CN(Cc2ccccc2)C1=O` (stereo not given): greater than 100 µM.
On the same count and under the same terms, in the case of `C=C1C(=O)OC2CC3(C)C=CC(=O)C(=C)C3CC12` (stereo not given) it was 3.36 µM; in that of `CCOP(=O)(OCC)C1CCCCOC1=O` (stereo not given), greater than 100 µM.

The next test deals with TK-10 renal. The test can be described thus: NCI tumour cell line growth inhibition, 48 h.
On to `CN(C)c1ccc2c(NCCCCCCNc3ccnc4cc(N(C)C)ccc34)ccnc2c1`, for which the TGI was 32.2 µM.
The molecule `Nc1cc(=O)[nH]c(SC2=NC(N)CC(O)C2)n1` (stereo not given) returned a TGI greater than 100 µM.
Consider `CC(=O)[O][Pb]([O]C(C)=O)([c]1ccccc1)[c]1ccccc1`, for which the GI50 was greater than 53.1 µM and the TGI was greater than 100 µM.
In turn, `CN1CCc2c1nc(-c1ccccc1)c1c2N(C)CC1` displayed a TGI greater than 100 µM.
For `CCC[CH2][Sn]([CH2]CCC)([O]C(C)=O)[O]C(C)=O`, the GI50 was 1.38 µM and the TGI is 2.74 µM.
In turn, `O=C(O)[C@@H]1C2CC([C@@H]1C(=O)O)[C@H](N1C(=O)CCC1=O)[C@@H]2Br` (stereo not given in full) yielded a TGI greater than 100 µM.
Same read-out and setting: in the case of `COC(=O)CCC(=O)N1Cc2cc(C)ccc2N(C(=O)CCC(=O)OC)Cc2cc(C)ccc21` it was greater than 100 µM; in that of `C=C1C(=O)O[C@H]2C[C@@H](C)[C@@H]3CC(=O)OC[C@@]3(C)CC12` (stereo not given in full), 55.2 µM.
For the molecule `CCOC(=O)c1c2c(n(CC(C)C)c1C)-c1nc[nH]c1C(=O)C2=O`, the GI50 is 20.5 µM and the TGI stood at 36.6 µM.
`CS(=O)(=O)CC1=Nc2nnc(CCCCCCCc3nnc4n3C(=O)C(CS(C)(=O)=O)=N4)n2C1=O` yielded a TGI greater than 100 µM.
For the molecule `COc1ccccc1[N-]C(C1=C([O-])c2ccccc2C1=O)c1ccccc1.COc1ccccc1[N-]C(C1=C([O-])c2ccccc2C1=O)c1ccccc1.[Cu+2]` (stereo not given), the GI50 is 31.7 µM and the TGI was found to be 68.3 µM.
On the same counts, the results for `COc1cc2c(cc1OC)-c1ccc3cc4c(cc3c1N(CCN1CCCC1)C2)OCO4` are 3.46 µM and 12.5 µM.
Take `O=C(NCCCCCCNC(=O)c1cccc2ccccc12)c1cccc2ccccc12`: the TGI came to 36.9 µM.
Still for that read-out and setting: in the case of `COC12C=CC(CC1)c1c(O)ccc(O)c12` (stereo not given) it was greater than 67.1 µM; in that of `CC1=C2CCCC2C/C(=N/Nc2ccc([N+](=O)[O-])cc2[N+](=O)[O-])CC1` (stereo not given), greater than 100 µM.
With `COc1cc2cc(Oc3ccc(NC(=O)Nc4ccc(Cl)c(C(F)(F)F)c4)cc3)c(C)nc2cc1OCCN1CCCCC1`, the GI50 is 1.79 µM and the TGI was determined as 3.38 µM.
For `C=CCC(N[C@H](CO)C(C)C)c1cn(C(=O)OCC)c2ccccc12` (stereo not given in full) the same measures were 13.7 µM and 44.1 µM.
On the same counts, the results for `CC12CCC(=O)C(O1)C1C(=O)c3cc4ccccc4cc3C(=O)C12` (stereo not given) are 16.6 µM and 33.6 µM.
Consider `CC1(C)CCC2(C(=O)OC3OC(CO)C(O)C(O)C3O)CC[C@]3(C)C(=CCC4C5(C)CC[C@H](OC6OC(C(=O)O)C(O)C(O)C6O)C(C)(C)C5CCC43C)C2C1` (stereo not given in full), for which the GI50 is 1.85 µM and the TGI is 10.3 µM.
Consider `Cc1ccc2c(c1)C1(C)OC(CC(N)C1O)O2` (stereo not given), for which the TGI was greater than 100 µM.
Same read-out and setting: the same measure for `CC1(Sc2ccccc2)CN(Cc2ccccc2)C1=O` (stereo not given): greater than 100 µM; for `C=C1C(=O)OC2CC3(C)C=CC(=O)C(=C)C3CC12` (stereo not given): 4.79 µM; for `CCOP(=O)(OCC)C1CCCCOC1=O` (stereo not given): greater than 100 µM.

The next test has as its system A549 NSCLC. Kind of test: NCI tumour cell line growth inhibition, 48 h.
Take `CN(C)c1ccc2c(NCCCCCCNc3ccnc4cc(N(C)C)ccc34)ccnc2c1`: the TGI was greater than 100 µM.
On to `CC(=O)[O][Pb]([O]C(C)=O)([c]1ccccc1)[c]1ccccc1`, for which the GI50 was greater than 100 µM and the TGI was greater than 100 µM.
In turn, `CN1CCc2c1nc(-c1ccccc1)c1c2N(C)CC1` showed a TGI greater than 100 µM.
